In BigSolDB 2.1:

Cc1nc2cc(N)ccc2s1
solubility (mole fraction)
Details | 288.5 K | 293.5 K | 298.5 K | 303.5 K | 308.5 K | 313.5 K | 318.5 K | 323.5 K | 328.5 K
in ethanol | 0.00125 | 0.00129 | 0.00156 | 0.00164 | 0.00174 | 0.00194 | 0.0022 | 0.00253 | 0.00284
in water | 0.000191 | 0.000269 | 0.000311 | 0.000491 | 0.000534 | 0.000745 | 0.000872 | 0.000937 | 0.00113
